Experimental data from PMC6102691, “Identification of a novel ligand for the ATAD2 bromodomain with selectivity over BRD4 through a fragment growing approach” (Organic & Biomolecular Chemistry, 2018).

Experiments:
BRD4 = BRD4 (Homo sapiens, UniProt O60885); assay: Surface plasmon resonance (SPR) direct binding to BRD4; conditions: for Kd: SPR format assay, Kd above the top concentration projected by extrapolation (extrapolated Rmax from control compound); for selectivity between ATAD2 and BRD4, in words: BRD4 versus ATAD2
Protocol: Surface plasmon resonance (SPR) was used to assess the direct binding of the fragments and provide Kd values for binding to both ATAD2 and BRD4. SPR can yield artefactual data where the concentration of a small-molecular analyte exceeds ∼250 μM, and accordingly, this was the highest concentration used in the assays. Where the Kd exceeded this limit, projected Kds were determined by extrapolation, using the observed response units for compound binding (RU) relative to the molecular weight of a known control compound.[23]
(§1) 12.5 μM using an Echo 550 (Labcyte). Each well was backfilled to a final volume of 200 nl (for the […]), resulting in final DMSO concentrations of 2 %. 5 μl of GST-ATAD2 was added to each well and incubated for 30mins resulting in a final concentration of 5 nM.
(§2) 5μl of biotinylated-histone H4 peptide (SGRG-K(Ac)-GG-K(Ac)-GLG-K(Ac)-GGA-K(Ac)- RHRKVGG-K(Biotin)) was then added to each well at a final concentration of 500nM. Both GST-ATAD2 and peptide were diluted in buffer B (50 mM Tris pH 7.5, […], 1 mM DTT, 100 μg/ml bovine serum albumin (BSA)). The plate was then incubated at room temperature for 30mins and then 5 μl LanthaScreen® Tb-anti-GST Antibody (Life Technologies) at final concentration of 5 nM was added to each well and incubated for an additional 30mins. 5 μl of streptavidin-XLL65 (Cisbio Assay) at a final concentration of […] was added to each assay well. Both dyes were diluted in buffer C (50 mM Tris pH 7.5, […], 100 μg/ml BSA). The plate was incubated at room temperature for a further 30mins and then read using a PheraStar FS (BMG Labtech). The data were analysed using Graphpad […]
(§3) 1.4 Surface Plasmon Resonance (SPR).
(§4) SPR-based ligand binding assays were performed using Biacore S200 (GE Healthcare) at 25 °C using single cycle affinity.
(§5) ATAD2N1064A was achieved using standard amine coupling on a CM5 chip surface. The surface was prepared through activation with EDC/NHS, followed by injection of 10 µg/ml of respective proteins until target level 8000 RU was reached. The surface was then quenched using 1 M Ethanolamine and washed with running buffer 10 mM HEPES, 150mM NaCl, 0.01% TWEEN20, 0.5 mM TCEP and 1% DMSO with a flow rate of […]. Compounds were injected in a dose-response manner (8 concentration points ranging from 0-200 µM) in series across the control, ATAD2, BRD4, and ATAD2-N1064A flow cells using solvent correction to account for bulk refractive index changes. The reference control channel was subtracted […]
(§6) from immobilised channels and dose-response data was fitted using a steady state constant Rmax 1:1 binding model, using an extrapolated Rmax determined from a binding control compound in those cases where the extrapolated Kd value was greater than the top concentration used in the experiment (200 µM). K d values are reported to the nearest 100th of micromolar. 1 […]
(§7) Crystallisation was performed at 20 °C using the hanging drop vapor diffusion method.
(§8) Crystals of ATAD2 were grown by mixing 2µl ATAD2 at 7mg/ml and 2µl precipitant containing 0.1 M BIS-TRIS pH 6.5 and 2.0 M ammonium sulfate. Crystals were harvested in a diffusion solution containing 10 mM compound, 5% DMSO, 25 mM HEPES pH 7.5, 75 mM NaCl, 50 mM BIS-TRIS pH 6.5 and 1.0 M Ammonium Sulfate for 48hrs. Prior to data collection the crystals were cryo protected with the addition of 25% (v/v) ethylene glycol to the diffusion solution. X-ray diffraction data were recorded at Diamond Light Source (Harwell, Oxfordshire, UK). Data processing was carried out using XDS, POINTLESS/AIMLESS2 and other programs of the CCP4i suite3 run through the CCP4i2 gui. Structures were solved by molecular replacement using PHASER4 and pdb 3DAI as a starting model. REFMAC5 was employed for refinement, and model building was performed using COOT6. PDBs were deposited within the protein database www.pdb.org using accession codes: 11 XXXX, 15a […]

ATAD2 bromodomain = target: T1, ATAD2 bromodomain (Homo sapiens, UniProt Q6PL18); assay: Surface plasmon resonance (SPR) direct binding to ATAD2; conditions: for Kd: SPR format assay, Kd above the top concentration projected by extrapolation (extrapolated Rmax from control compound)
T1 construct: 981-1108; GST (N); made in house; host or cells: Escherichia coli BL21 (DE3) pLysS, plasmid pGEX-6P-1
T1 sequence (Q6PL18 981-1108): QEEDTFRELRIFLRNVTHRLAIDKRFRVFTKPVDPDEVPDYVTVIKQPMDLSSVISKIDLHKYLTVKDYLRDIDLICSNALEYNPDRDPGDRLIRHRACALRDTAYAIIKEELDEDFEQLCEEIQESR
Protocol: (§9) Surface plasmon resonance (SPR) was used to assess the direct binding of the fragments and provide Kd values for binding to both ATAD2 and BRD4. SPR can yield artefactual data where the concentration of a small-molecular analyte exceeds ∼250 μM, and accordingly, this was the highest concentration used in the assays.
as §1, §2, §3, §4, §5, §6, §7, §8

[1] = target: T2, GST-ATAD2 bromodomain / biotinylated acetylated histone H4 peptide (Homo sapiens, UniProt Q6PL18); assay: ATAD2-histone displacement HTRF assay; type: binding; conditions: for IC50: HTRF format assay, highest concentration 1000 μM; for ATAD2 LE: Ligand efficiency (LE) = 1.4(–log IC50)/N, N = number of non-hydrogen atoms, from HTRF IC50; for ATAD2 inhibition in HTRF, in words: highest concentration assayed 1000 μM
T2 construct: 981-1108; made in house; host or cells: Escherichia coli BL21 (DE3) pLysS, plasmid pGEX-6P-1
T2 sequence (Q6PL18 981-1108): T1 sequence (Q6PL18 981-1108)
Protocol: as §9
1.1 Protein Purification.
The ATAD2 bromodomain 981-1108 was expressed with an N-terminal GST fusion from the pGEX-6P-1 plasmid. The plasmids were transformed into BL21 (DE3) pLysS Escherichia coli (Novagen) and then the cells grown in luria bertani (LB) media at 37 °C until an OD600 of 0.6 was reached. The temperature was reduced to 20 °C and expression induced using 0.2 mM Isopropyl β-D-1-thiogalactopyranoside (IPTG). The cells were harvested after overnight incubation and resuspended in buffer A (20 mM HEPES pH 7.4, 100 mM NaCl, 5 mM Dithiothreitol (DTT)). The cells were lysed by sonication and the lysate cleared by centrifugation (50,000 x g, 4 °C, 1 hr). The protein was passed over 5ml of glutathione Sepharose 4B resin (GE Healthcare) at 4 °C. The resin was then washed with buffer A and the protein eluted with buffer A supplemented with 10 mM glutathione. The protein was then applied to a Superdex 200 26/60 gel filtration column (GE Healthcare) equilibrated in buffer […]
1.2 Isothermal Titration Calorimetry.
ATAD2 was exchanged into ITC buffer (50 mM HEPES pH7.4, 200 mM NaCl, 1 mM DTT).
ITC measurements were carried out at 25°C on a Microcal ITC 200 (Malvern Instruments Ltd, Malvern, UK). Compound 11 at 40mM, 2% DMSO was titrated into ATAD2 prepared in the cell at 150 μM, 2% DMSO. Titrations began with an initial 0.5 μL injection followed by 19x 2 μL injections of compound, with 120s spacing between each injection, and stirred at 1000 rpm throughout the experiment. Data were then analysed using Origin 7.0 (OriginLab Corp., Burlington, NC, USA) and fit with the one-set-of-sites model.
1.3 ATAD2-Histone displacement HTRF assay.
Compounds (dissolved to 100 mM in DMSO) were dispensed into black 384 well assay plates […]
as §1, §2, §3, §4
ATAD2N1064A was achieved using standard amine coupling on a CM5 chip surface. The surface was prepared through activation with EDC/NHS, followed by injection of 10 µg/ml of respective proteins until target level 8000 RU was reached. The surface was then quenched using 1 M Ethanolamine and washed with running buffer 10 mM HEPES, 150mM NaCl, 0.01% TWEEN20, 0.5 mM TCEP and 1% DMSO with a flow rate of […]. Compounds were injected in a dose-response manner (8 concentration points ranging from 0-200 µM) in series across the control, ATAD2, BRD4, and ATAD2-N1064A flow cells using solvent correction to account for bulk refractive index changes. The reference control channel was subtracted

Compound	Kd (BRD4)	Kd (ATAD2 bromodomain)	IC50 [1]	ATAD2 LE [1]	BRD4 binding by SPR, in words (BRD4; SPR)	ATAD2 binding by SPR, in words (ATAD2 bromodomain; SPR)	ATAD2 inhibition in HTRF, in words [1]	selectivity between ATAD2 and BRD4, in words (BRD4; SPR)	binding constant towards ATAD2 relative to BRD4 (fold weaker) (ATAD2 bromodomain; SPR, ATAD2 Kd versus BRD4 Kd)
CCC1(CC)C(=O)N(C)c2cn(Cc3ccc(C(F)(F)F)cc3)c(=O)cc21 [Compound 18b]	> 2000 µM	> 200 µM	163 ± 37 µM	0.20	–	–	–	–	–
CN1C(=O)C(C)(C)c2cc(=O)n(C)cc21 [Compound 17a]	> 200 µM	> 2000 µM	> 1000 µM	–	detectable binding to BRD4	bound too weakly to ATAD2 to allow Kd values to be calculated	some inhibition was observed at the highest concentration assayed	–	–
CN1C(=O)C(C)(C)c2cc(=O)n(Cc3ccccc3)cc21 [Compound 17c]	101 µM	> 200 µM	681 ± 120 µM	0.21	–	–	sub-millimolar ATAD2 IC50 values	bound more tightly to BRD4 than to ATAD2	–
CN1C(=O)C(C)(Cc2ccccn2)c2cc(=O)n(Cc3ccc(Cl)cc3)cc21 (stereo not drawn) [Compound 22b]	> 200 µM	> 200 µM	> 1000 µM	–	–	–	–	–	–
CN1C(=O)C(C)(C)c2cc(=O)n(Cc3ccccc3C(=O)O)cc21 [Compound 17q]	> 200 µM	> 2000 µM	> 1000 µM	–	–	–	–	–	–
CN1C(=O)C(C)(C)c2cc(=O)n(CCc3ccccc3)cc21 [Compound 17d]	161 µM	> 200 µM	741 ± 74 µM	0.20	–	–	sub-millimolar ATAD2 IC50 values	bound more tightly to BRD4 than to ATAD2	–
CN1C(=O)C(C)(C)c2cc(=O)n(Cc3ccc(C#N)cc3)cc21 [Compound 17g]	142 µM	> 200 µM	562 ± 67 µM	0.20	–	–	–	–	–
CN1C(=O)C(C)(CC(C)(C)C)c2cc(=O)n(Cc3ccc(Cl)cc3)cc21 (stereo not drawn) [Compound 22d]	> 2000 µM	125 µM	489 ± 18 µM	0.18	–	–	–	–	–
CN1C(=O)C(C)(CC2(C)COC2)c2cc(=O)n(Cc3ccc(Cl)cc3)cc21 (stereo not drawn) [Compound 22e]	> 2000 µM	> 200 µM	214 µM	0.19	–	–	–	–	–
Cn1cc2c(cc1=O)C(C)(C)C(=O)N2CCO [Compound 14g]	> 2000 µM	> 2000 µM	> 1000 µM	–	–	–	–	–	–
CN1C(=O)C(C)(C)c2cc(=O)n(Cc3ccc(Cl)c(Cl)c3)cc21 [Compound 17n]	65 µM	159 µM	299 ± 28 µM	0.21	–	–	–	–	–
CC1(C)C(=O)Nc2cn(Cc3ccccc3)c(=O)cc21 [Compound 15c]	> 200 µM	> 200 µM	> 1000 µM	–	–	–	–	–	–
Cn1cc2c(cc1=O)C(C)(C)C(=O)N2 [Compound 7]	> 2000 µM	–	–	–	–	bound too weakly to ATAD2 to allow Kd values to be calculated	some inhibition was observed at the highest concentration assayed	–	–
CN1C(=O)C(C)(C)c2cc(=O)n(Cc3ccc(C(F)(F)F)cc3)cc21 [Compound 17m]	124 µM	> 200 µM	179 ± 43 µM	0.21	–	–	–	–	–
CN1C(=O)C(C)(C)c2cc(=O)n(Cc3ccccc3C#N)cc21 [Compound 17o]	> 200 µM	> 2000 µM	> 1000 µM	–	–	–	–	–	–
Cc1nc(CC2(C)C(=O)N(C)c3cn(Cc4ccc(Cl)cc4)c(=O)cc32)cs1 (stereo not drawn) [Compound 22c]	> 200 µM	110 µM	352 µM	0.17	–	–	–	–	–
CCN1C(=O)C(C)(C)c2cc(=O)n(C)cc21 [Compound 14a]	12.7 µM	> 200 µM	> 1000 µM	–	–	–	some inhibition was observed at the highest concentration assayed	–	100 fold
